From PubChem BioAssay AID1996
In brackets after ≈: the same amount, converted by molar mass.

conditions: buffer; pH 7.4; 200.0 µM

SMILES	solubility kinetic
CCOCCCNC(=O)C1CCCN1C(=O)Nc1ccccc1[N+](=O)[O-] (stereo unspecified)	> 54.7 µg/mL
CC(=O)N1CCN(C(=O)c2ccc(Cl)c(S(=O)(=O)N3CCCC3)c2)CC1	> 60 µg/mL
C=CCOc1ccc(C(=O)Nc2ccc3c(c2)n(C)c(=O)n3C)cc1	11.4 µg/mL (≈ 33.8 µM)
CCOc1ccc(CC(=O)N/N=C/c2cccnc2)cc1	> 42.5 µg/mL
CN(C(=O)COC(=O)c1cc2ccccc2oc1=O)C1CCCCC1	47.7 µg/mL (≈ 139 µM)
CC(CN1CCN(C)CC1)OC(=O)c1ccc(F)cc1.Cl (stereo unspecified)	> 47.5 µg/mL
S=C(NCc1ccco1)Nc1ccc(Cl)cn1	4.1 µg/mL (≈ 15.3 µM)
COC(=O)c1cc(Br)c(N)cc1OC	> 39 µg/mL
Cc1ccc(C(=O)NCCNC(=O)c2cnccn2)cc1	34.9 µg/mL (≈ 123 µM)
S=C(c1ccccc1)N1CCSCC1	> 33.5 µg/mL
NS(=O)(=O)c1ccc(CCNC(=O)c2ccc(Cl)c(S(=O)(=O)N3CCCCC3)c2)cc1	12.1 µg/mL (≈ 24.9 µM)
Cc1ccc(C(=O)NCC(=O)Nc2ncccc2C)s1	> 43.4 µg/mL
NC(=O)COC(=O)CC12CC3CC(CC(Br)(C3)C1)C2	> 49.5 µg/mL
CCc1ccc(OCC(=O)Oc2ccc([N+](=O)[O-])cc2)cc1	29.4 µg/mL (≈ 97.6 µM)
O=C(c1ccc([N+](=O)[O-])cc1)N1CCN(c2ncccn2)CC1	46.3 µg/mL (≈ 148 µM)
CC(=O)C(CC(=O)N1CCCC1)C(=O)Nc1ccc(Cl)cc1 (stereo unspecified)	> 48.4 µg/mL
COc1ccc(C(=O)NC2=NCCS2)c(OC)c1	> 39.9 µg/mL
CCCOc1ccc(Cl)cc1/C=C1/C(=O)ON=C1C	29.2 µg/mL (≈ 104 µM)
CCC(=O)c1ccc(OC(=O)c2cnccn2)cc1	> 38.4 µg/mL
CNc1snc(C)c1C(=O)OC(C)C(=O)Nc1ccc(F)cc1 (stereo unspecified)	> 50.6 µg/mL
COc1ccc(CNC(=O)CSCc2c(F)cccc2Cl)cc1	5.5 µg/mL (≈ 15.5 µM)
Cc1ccc(S(=O)(=O)c2nc(-c3ccccc3Cl)oc2N2CCN(C)CC2)cc1	25.2 µg/mL (≈ 58.3 µM)
c1ccc2c(CN3CCOCC3)c[nH]c2c1	> 32.4 µg/mL
CC1=C(C(=O)OCC2CCCCC2)C(c2ccccc2F)NC(=O)N1 (stereo unspecified)	0.6 µg/mL (≈ 1.73 µM)
O=C(c1cc(-c2ccccc2O)on1)N1CCCCCC1	2.6 µg/mL (≈ 9.08 µM)
Cn1c(=O)c([N+](=O)[O-])c(NCC2CCCO2)c2ccccc21 (stereo unspecified)	> 45.5 µg/mL
COCc1[nH]c(=S)c(C#N)cc1C(=O)OC	27.9 µg/mL (≈ 117 µM)
CCC(=O)Nc1ccc(C=C(C(C)=O)C(C)=O)cc1	> 38.9 µg/mL

SMILES	solubility kinetic
O=C(CN1C(=O)c2ccccc2C1=O)NC1CCC(O)CC1 (stereo unspecified)	> 45.3 µg/mL
O=C(NCCNC(=O)c1ccccn1)c1cccc(F)c1	41.7 µg/mL (≈ 145 µM)
CCc1ccc(C2CC(=O)Nc3c2c(=O)nc2c(C)cccn32)cc1 (stereo unspecified)	> 50 µg/mL
COc1ccc(/C=C2\SC(=O)N(CCCC(=O)Nc3cc(Cl)ccc3C(=O)O)C2=O)cc1	> 71.2 µg/mL
CC(C)OCCCNC(=O)COc1ccc2oc3c(c2c1)CCCC3	48.1 µg/mL (≈ 139 µM)
COc1ccc(CCCC(=O)Nc2cc(C)ccc2OC)cc1	20 µg/mL (≈ 63.8 µM)
Cc1ccc(S(=O)(=O)N2CCOCC2)cc1C(=O)NC1=NCCS1	> 55.4 µg/mL
Cc1sc(N)nc1C12CC3CC(CC(C3)C1)C2	3.3 µg/mL (≈ 13.3 µM)
O=C(c1ccco1)N1CCN(S(=O)(=O)c2cccc(Cl)c2)CC1	> 53.2 µg/mL
CSc1ncccc1C(=O)OCC(=O)Nc1ccc(Cl)cn1	3.6 µg/mL (≈ 10.7 µM)
FC(F)(F)c1ccc(-n2cn[nH]c2=S)cc1	> 36.8 µg/mL
COc1ccc(N2CCOCC2)c(NC(=O)c2ccc3c(c2)OCO3)c1	26.2 µg/mL (≈ 73.5 µM)
C[C@H](NC(=O)c1ccccc1)C(=O)OCC(=O)Nc1sccc1C(N)=O	> 56.3 µg/mL
O=[N+]([O-])c1ccc(CN2CCN(c3ccccc3Cl)CC2)o1	31.8 µg/mL (≈ 98.8 µM)
Cc1cccc(OCC(=O)NCC(C)(C)N2CCOCC2)c1	> 46 µg/mL
CNC(=O)COC(=O)/C=C/c1cccs1	> 33.8 µg/mL
N#CCN1CCCC(C(N)=O)C1 (stereo unspecified)	19.6 µg/mL (≈ 117 µM)
Cc1cccc(CC2CC(=O)N(CCc3ccc4c(c3)OCO4)C2=O)c1 (stereo unspecified)	11.5 µg/mL (≈ 32.7 µM)
CCCn1c(=O)c2[nH]c(-c3ccc(S(=O)(=O)O)cc3)nc2n(CCC)c1=O	> 58.9 µg/mL
Cn1cnc2c1c(=O)n(Cc1cccc(F)c1)c(=O)n2C	30.8 µg/mL (≈ 107 µM)
Fc1ccc(N2CCN(Cc3cnc(Cl)s3)CC2)cc1	45.9 µg/mL (≈ 147 µM)
CC(C)NC(=O)CC1(C(=O)NCc2ccc(Cl)cc2)CCCC1	> 50.5 µg/mL
Cc1noc(/C=C/c2ccccn2)c1[N+](=O)[O-]	19.3 µg/mL (≈ 83.5 µM)
Cc1cc(NC(=O)COc2ccccc2C#N)no1	11.2 µg/mL (≈ 43.5 µM)
COc1cccc(NC(=O)CN2C(=O)NC(C)(C3CC3)C2=O)c1 (stereo unspecified)	> 47.6 µg/mL
O=C(CSCc1c(F)cccc1Cl)NCc1ccncc1	> 48.7 µg/mL
CCc1ccccc1NC(=O)CN(C)C(=O)COC(=O)c1ccco1	> 51.7 µg/mL

Continued, values first:

solubility kinetic	SMILES
< 0.2 µg/mL	O=C(Nc1ccc2oc(-c3ccncc3)nc2c1)c1ccccc1
50.3 µg/mL (≈ 148 µM)	COc1cccc(N2CCN(CC(=O)NCc3ccccc3)CC2)c1
> 37.8 µg/mL	O=Cc1ccc(OCc2cn3ccccc3n2)cc1
17.2 µg/mL (≈ 72.5 µM)	O=c1[nH]c2ccccc2c(O)c1-c1ccccc1
44.8 µg/mL (≈ 146 µM)	O=C(COc1ncnc2ccccc12)NCCc1ccccc1
> 28.1 µg/mL	O=C(Nc1ccccc1)c1ccco1
< 0.4 µg/mL	COc1ccc(O)c(C2=Nc3ccccc3N=C(c3ccccc3)C2)c1
31.4 µg/mL (≈ 127 µM)	O=C(Cn1ccccc1=O)c1ccc(Cl)cc1
40.6 µg/mL (≈ 114 µM)	CCOc1ccccc1C(=O)NCCNC(=O)c1ccccc1OCC
20.8 µg/mL (≈ 61.8 µM)	O=C(COC(=O)c1cc(=O)[nH]c2ccccc12)NCc1ccccc1
11.9 µg/mL (≈ 35.5 µM)	CCCN1C(=O)c2ccccc2NC1c1ccc(Cl)c(Cl)c1 (stereo unspecified)
> 38.6 µg/mL	Cl.Nc1ccc(Cc2ccccn2)cc1
< 0.2 µg/mL	CCn1c(=O)c(-c2nc3ccccc3[nH]2)c(O)c2ccccc21
39.8 µg/mL (≈ 133 µM)	Cc1cnc(NC(=O)c2c(-c3ccccc3)noc2C)s1
1.2 µg/mL (≈ 4.24 µM)	CN1c2ccc([N+](=O)[O-])cc2N(C)C1(C)c1ccccc1 (stereo unspecified)
20.3 µg/mL (≈ 57.3 µM)	COc1cc2[nH]c(C(=O)NCCc3ccccc3)cc2c(OC)c1OC

solubility kinetic	SMILES
> 49.7 µg/mL	CC1CC(=O)Nc2ccccc2N1C(=O)Nc1ccc(F)cc1F (stereo unspecified)
> 57.2 µg/mL	COc1cccc(CNC(=O)COC(=O)c2nn(C)c(=O)c3ccccc23)c1
1.7 µg/mL (≈ 5.38 µM)	CC(=O)Oc1ccc(-c2nc3cc(Cl)ccc3c(=O)o2)cc1
0.5 µg/mL (≈ 2.03 µM)	Cc1cccc2nc3c(nc12)-c1ccccc1C3=O
28.3 µg/mL (≈ 92.4 µM)	COc1ccc(F)cc1S(=O)(=O)n1cnc2ccccc21
29.7 µg/mL (≈ 92.1 µM)	Cc1ccc(NC(=O)C(C)N2C(=O)c3ccccc3C2=O)c(C)c1 (stereo unspecified)
6.7 µg/mL (≈ 28 µM)	CCc1ncc(/C=C2\C(=O)Nc3ccccc32)[nH]1
2.3 µg/mL (≈ 7.2 µM)	CCn1c2ccccc2c2cc(NC(=O)c3cc(C)on3)ccc21
36.3 µg/mL (≈ 143 µM)	Cn1cccc1C(=O)/C(C#N)=C/c1ccc(F)cc1
4.6 µg/mL (≈ 13.4 µM)	CN(Cc1ccc2ccccc2c1)C(=O)c1ccc(C(F)(F)F)cc1
1.8 µg/mL (≈ 5.62 µM)	CC(C)c1ccc(NC(=S)Nc2cccc3ccccc23)cc1
17.2 µg/mL (≈ 54.2 µM)	CSc1ccccc1C(=O)NCCSc1ccc(C)cc1
30.2 µg/mL (≈ 97.3 µM)	COC(=O)C1=C(C)N(C)C(=O)NC1c1cccc2ccccc12 (stereo unspecified)
29.2 µg/mL (≈ 109 µM)	NC(=O)C1CCCN(Cc2ccc3ccccc3c2)C1 (stereo unspecified)
5 µg/mL (≈ 15 µM)	O=C(/C=C/c1ccccc1)NCCCNC(=O)/C=C/c1ccccc1
